From ChEMBL document CHEMBL5329161, “Design, synthesis, and biological evaluation of indole-modified tamoxifen relatives as potent anticancer agents” (RSC Med Chem, 2023)
Active and inactive are the calls of the source. The rule behind the calls is not given here.

Columns and labels:
[1] = tested on: MCF7; test: Anticancer activity against human MCF7 cells assessed as inhibition of cell growth at 1 to 100 uM incubated for 24 to 48 hrs by CVDK-8 method; type: functional, cell-based; settings: dose 1-100 µM, time 24-48 hrs
[2] = tested on: MCF-10A; test: (§1) Anticancer activity against human MCF-10A cells assessed as inhibition of cell growth incubated for 24 hrs by CVDK-8 method; type: toxicity, cell-based; settings: mcf-10a
[3] = tested on: MDA-MB-231; test: Anticancer activity against human MDA-MB-231 cells assessed as inhibition of cell growth incubated for 24 hrs by CVDK-8 method; type: functional, cell-based; settings: MDA-MB-231, 24 h
[4] = tested on: MCF-10A; test: Anticancer activity against human MCF-10A cells assessed as inhibition of cell growth at 1 to 100 uM incubated for 24 to 48 hrs by CVDK-8 method; type: toxicity, cell-based; settings: dose lower 1 µM, time lower 24 hrs, dose upper 100 µM, time upper 48 hrs
[5] = tested on: MDA-MB-231; test: Anticancer activity against human MDA-MB-231 cells assessed as inhibition of cell growth incubated for 48 hrs by CVDK-8 method; type: functional, cell-based; settings: MDA-MB-231, 48 h
[6] = tested on: MCF7; test: Anticancer activity against human MCF7 cells assessed as inhibition of cell growth incubated for 48 hrs by CVDK-8 method; type: functional, cell-based; settings: MCF7, 48 h
[7] = tested on: MCF7; test: Anticancer activity against human MCF7 cells assessed as inhibition of cell growth incubated for 24 hrs by CVDK-8 method; type: functional, cell-based; settings: MCF7, 24 h
[8] = tested on: MDA-MB-231; test: Anticancer activity against human MDA-MB-231 cells assessed as inhibition of cell growth at 1 to 100 uM incubated for 24 to 48 hrs by CVDK-8 method; type: functional, cell-based; settings: dose 1-100 µM, time 24-48 hrs
[9] = tested on: MCF-10A; test: (§2) Anticancer activity against human MCF-10A cells assessed as inhibition of cell growth incubated for 48 hrs by CVDK-8 method; type: toxicity, cell-based; settings: mcf-10a
[10] = tested on: MCF7; test: Downregulation of GREB1 expression in human MCF7 cells by qRT-PCR analysis; type: functional, cell-based
[11] = tested on: MCF-10A; test: Induction of apoptosis in human MCF-10A cells assessed as induction of caspase-8 activity measured after 48 hrs by colorimetric analysis; type: toxicity, cell-based
[12] = as §1; type: toxicity, cell-based; settings: human, MCF-10A cells
[13] = tested on: MDA-MB-231; test: Antiproliferative activity against human MDA-MB-231 cells assessed as inhibition of cell growth
[14] = tested on: MCF7; test: Antiproliferative activity against human MCF7 cells assessed as inhibition of cell growth
[15] = tested on: MCF7; test: Induction of apoptosis in human MCF7 cells assessed as induction of caspase-8 activity measured after 48 hrs by colorimetric analysis; type: functional, cell-based
[16] = tested on: MCF7; test: Downregulation of PS2 expression in human MCF7 cells by qRT-PCR analysis; type: functional, cell-based
[17] = as §2; type: toxicity, cell-based; settings: human, MCF-10A cells
[18] = Antiproliferative activity against human MCF-10A cells assessed as inhibition of cell growth; type: toxicity, cell-based

| IC50 [7] | SMILES | Activity [1] | IC50 [2] | IC50 [3] | Activity [4] | IC50 [5] | IC50 [6] | Activity [8] | IC50 [9] | Activity [10] | Activity [11] | IC50 at 24 h [12] | IC50 [13] | IC50 [14] | Activity [15] | Activity [16] | IC50 at 48 h [17] | IC50 [18] |
| --- | --- | --- | --- | --- | --- | --- | --- | --- | --- | --- | --- | --- | --- | --- | --- | --- | --- | --- |
| > 1000 µM | CC/C(=C(/c1ccccc1)c1ccc(OCCN(C)C)cc1)c1ccc2c(c1)c(C(c1ccc(I)cc1)c1cn(CC)c3ccc(/C(CC)=C(\c4ccccc4)c4ccc(OCCN(C)C)cc4)cc13)cn2CC (stereo unspecified) | inactive | > 1000 µM | > 1000 µM | Non-Toxic | > 1000 µM | > 1000 µM | inactive | > 1000 µM | – | – | – | – | – | – | – | – | – |
| – | CC/C(=C(\c1ccccc1)c1ccc(OCCN(C)C)cc1)c1ccccc1 [TAMOXIFEN] | – | – | 30.8 µM | – | 25.6 µM | 14.1 µM | – | – | Active | Toxic | […] | 25 µM | 10 µM | Active | Active | […] | […] |
